From patent publication US8216802B2, “Detection medium for gram negative bacteria” (Biomerieux, priority 2007, dated 2012)

Tests used:
Format in all cases: cell-based
Citrobacter freundii 022 [1] = test: Colony coloration on CPS ID 3 medium with cellobiose; details: 37° C.
Method: (§1) Various concentrations of cellobiose (0-100-350-1000 mg/l) are added to the CPS ID 3 medium (bioMérieux). These media contain 6-chloro-3-indolyl-beta-glucuronide at 250 mg/l and 5-bromo-4-chloro-3-indolyl-beta-glucoside at 50 mg/l. These media are distributed in a proportion of 20 ml per Petri dish. Microorganisms derived from the applicant's collection were inoculated on these media by semi-quantitative isolation of 10 μl of a suspension at 0.5 McFarland, diluted to 1/20. The dishes were incubated at 37° C. for 48 hours. The colonies formed were examined visually after 24 and 48 hours of incubation. The coloration of these colonies was noted.

Citrobacter freundii 031 [2] = test: as above; details: 37° C.
Method: as §1

Citrobacter freundii 104 [3] = test: as above; details: 37° C.
Method: as §1

[4] = tested on: Enterococcus faecalis 117; test: as above; details: 37° C.
Method: as §1

Escherichia coli 003 [5] = test: as above; details: 37° C.
Method: as §1

Escherichia coli 407 = test: as above; details: 37° C.
Method: as §1

[6] = tested on: Klebsiella pneumoniae 111; test: as above; details: 37° C.
Method: as §1

Serratia marcescens 112 [7] = test: as above; details: 37° C.
Method: as §1

Citrobacter freundii 022 [8] = test: Colony coloration on supplemented Trypticase Soy medium with cellobiose; details: 37° C.
Method: (§2) Various concentrations of cellobiose (0-0.1-1-5-10 g/l) are added to Trypticase Soy medium (bioMérieux) supplemented with 5-bromo-6-chloro-3-indolyl-beta-galactoside at 50 mg/l and with 5-bromo-4-chloro-3-indolyl-beta-glucoside at 50 mg/l. These media are distributed in a proportion of 20 ml per Petri dish. Microorganisms derived from the applicant's collection were inoculated on these media by semi-quantitative isolation of 10 μl of a suspension at 0.5 McFarland, diluted to 1/20. The dishes were incubated at 37° C. for 48 hours. The colonies formed were examined visually after 24 and 48 hours of incubation. The coloration of these colonies was noted.

Citrobacter freundii 031 [9] = test: as above; details: 37° C.
Method: as §2

Citrobacter freundii 104 [10] = test: as above; details: 37° C.
Method: as §2

[11] = tested on: Enterococcus faecalis 117; test: as above; details: 37° C.
Method: as §2

Escherichia coli 003 [12] = test: as above; details: 37° C.
Method: as §2

Escherichia coli 018 = test: as above; details: 37° C.
Method: as §2

[13] = tested on: Klebsiella pneumoniae 111; test: as above; details: 37° C.
Method: as §2

Serratia marcescens 112 [14] = test: as above; details: 37° C.
Method: as §2

Citrobacter strains [15] = test: Colony coloration on CPS ID 3 medium with cellobiose (text summary); details: in the presence of cellobiose
Method: as §1

Citrobacter strains [16] = test: Colony coloration on supplemented Trypticase Soy medium with cellobiose (text summary)
Method: as §2

O=C[C@H](O)[C@@H](O)[C@H](O[C@@H]1O[C@H](CO)[C@@H](O)[C@H](O)[C@H]1O)[C@H](O)CO [Cellobiose, cellobiose]
colony coloration (Citrobacter freundii 022 [1]; cellobiose 100 mg/l, 24 h): Violet
colony coloration (Citrobacter freundii 022 [1]; cellobiose 100 mg/l, 48 h): Violet
colony coloration (Citrobacter freundii 022 [1]; cellobiose 350 mg/l, 24 h): Violet
colony coloration (Citrobacter freundii 022 [1]; cellobiose 350 mg/l, 48 h): Violet
colony coloration (Citrobacter freundii 022 [1]; cellobiose 1000 mg/l, 24 h): Violet
colony coloration (Citrobacter freundii 022 [1]; cellobiose 1000 mg/l, 48 h): Violet
colony coloration (Citrobacter freundii 031 [2]; cellobiose 100 mg/l, 24 h): Green
colony coloration (Citrobacter freundii 031 [2]; cellobiose 100 mg/l, 48 h): Green
colony coloration (Citrobacter freundii 031 [2]; cellobiose 350 mg/l, 24 h): Green
colony coloration (Citrobacter freundii 031 [2]; cellobiose 350 mg/l, 48 h): Green
colony coloration (Citrobacter freundii 031 [2]; cellobiose 1000 mg/l, 24 h): Colorless
colony coloration (Citrobacter freundii 031 [2]; cellobiose 1000 mg/l, 48 h): Green
colony coloration (Citrobacter freundii 104 [3]; cellobiose 100 mg/l, 24 h): Green
colony coloration (Citrobacter freundii 104 [3]; cellobiose 100 mg/l, 48 h): Green
colony coloration (Citrobacter freundii 104 [3]; cellobiose 350 mg/l, 24 h): Green
colony coloration (Citrobacter freundii 104 [3]; cellobiose 350 mg/l, 48 h): Green
colony coloration (Citrobacter freundii 104 [3]; cellobiose 1000 mg/l, 24 h): Green
colony coloration (Citrobacter freundii 104 [3]; cellobiose 1000 mg/l, 48 h): Green
colony coloration ([4]; cellobiose 100 mg/l, 24 h): Turquoise
colony coloration ([4]; cellobiose 100 mg/l, 48 h): Turquoise
colony coloration ([4]; cellobiose 350 mg/l, 24 h): Turquoise
colony coloration ([4]; cellobiose 350 mg/l, 48 h): Turquoise
colony coloration ([4]; cellobiose 1000 mg/l, 24 h): Turquoise
colony coloration ([4]; cellobiose 1000 mg/l, 48 h): Turquoise
colony coloration (Escherichia coli 003 [5]; cellobiose 100 mg/l, 24 h): Pink
colony coloration (Escherichia coli 003 [5]; cellobiose 100 mg/l, 48 h): Red
colony coloration (Escherichia coli 003 [5]; cellobiose 350 mg/l, 24 h): Pink
colony coloration (Escherichia coli 003 [5]; cellobiose 350 mg/l, 48 h): Red
colony coloration (Escherichia coli 003 [5]; cellobiose 1000 mg/l, 24 h): Pink
colony coloration (Escherichia coli 003 [5]; cellobiose 1000 mg/l, 48 h): Red
colony coloration (Escherichia coli 407; cellobiose 100 mg/l, 24 h): Pink
colony coloration (Escherichia coli 407; cellobiose 100 mg/l, 48 h): Red
colony coloration (Escherichia coli 407; cellobiose 350 mg/l, 24 h): Pink
colony coloration (Escherichia coli 407; cellobiose 350 mg/l, 48 h): Red
colony coloration (Escherichia coli 407; cellobiose 1000 mg/l, 24 h): Pink
colony coloration (Escherichia coli 407; cellobiose 1000 mg/l, 48 h): Red
colony coloration ([6]; cellobiose 100 mg/l, 24 h): Turquoise
colony coloration ([6]; cellobiose 100 mg/l, 48 h): Turquoise
colony coloration ([6]; cellobiose 350 mg/l, 24 h): Turquoise
colony coloration ([6]; cellobiose 350 mg/l, 48 h): Turquoise
colony coloration ([6]; cellobiose 1000 mg/l, 24 h): Turquoise
colony coloration ([6]; cellobiose 1000 mg/l, 48 h): Turquoise
colony coloration (Serratia marcescens 112 [7]; cellobiose 100 mg/l, 24 h): Turquoise
colony coloration (Serratia marcescens 112 [7]; cellobiose 100 mg/l, 48 h): Turquoise
colony coloration (Serratia marcescens 112 [7]; cellobiose 350 mg/l, 24 h): Turquoise
colony coloration (Serratia marcescens 112 [7]; cellobiose 350 mg/l, 48 h): Turquoise
colony coloration (Serratia marcescens 112 [7]; cellobiose 1000 mg/l, 24 h): Turquoise
colony coloration (Serratia marcescens 112 [7]; cellobiose 1000 mg/l, 48 h): Turquoise
colony coloration (Citrobacter freundii 022 [8]; cellobiose 0.1 g/l, 24 h): Violet
colony coloration (Citrobacter freundii 022 [8]; cellobiose 0.1 g/l, 48 h): Blue
colony coloration (Citrobacter freundii 022 [8]; cellobiose 1 g/l, 24 h): Violet
colony coloration (Citrobacter freundii 022 [8]; cellobiose 1 g/l, 48 h): Blue
colony coloration (Citrobacter freundii 022 [8]; cellobiose 5 g/l, 24 h): Pink
colony coloration (Citrobacter freundii 022 [8]; cellobiose 5 g/l, 48 h): Blue
colony coloration (Citrobacter freundii 022 [8]; cellobiose 10 g/l, 24 h): Mauve
colony coloration (Citrobacter freundii 022 [8]; cellobiose 10 g/l, 48 h): Mauve
colony coloration (Citrobacter freundii 031 [9]; cellobiose 0.1 g/l, 24 h): Violet
colony coloration (Citrobacter freundii 031 [9]; cellobiose 0.1 g/l, 48 h): Green
colony coloration (Citrobacter freundii 031 [9]; cellobiose 1 g/l, 24 h): Mauve
colony coloration (Citrobacter freundii 031 [9]; cellobiose 1 g/l, 48 h): Green
colony coloration (Citrobacter freundii 031 [9]; cellobiose 5 g/l, 24 h): Mauve
colony coloration (Citrobacter freundii 031 [9]; cellobiose 5 g/l, 48 h): Green
colony coloration (Citrobacter freundii 031 [9]; cellobiose 10 g/l, 24 h): Mauve
colony coloration (Citrobacter freundii 031 [9]; cellobiose 10 g/l, 48 h): Mauve
colony coloration (Citrobacter freundii 104 [10]; cellobiose 0.1 g/l, 24 h): Violet
colony coloration (Citrobacter freundii 104 [10]; cellobiose 0.1 g/l, 48 h): Green
colony coloration (Citrobacter freundii 104 [10]; cellobiose 1 g/l, 24 h): Violet
colony coloration (Citrobacter freundii 104 [10]; cellobiose 1 g/l, 48 h): Green
colony coloration (Citrobacter freundii 104 [10]; cellobiose 5 g/l, 24 h): Mauve
colony coloration (Citrobacter freundii 104 [10]; cellobiose 5 g/l, 48 h): Green
colony coloration (Citrobacter freundii 104 [10]; cellobiose 10 g/l, 24 h): Mauve
colony coloration (Citrobacter freundii 104 [10]; cellobiose 10 g/l, 48 h): Mauve
colony coloration ([11]; cellobiose 0.1 g/l, 24 h): Turquoise
colony coloration ([11]; cellobiose 0.1 g/l, 48 h): Turquoise
colony coloration ([11]; cellobiose 1 g/l, 24 h): Turquoise
colony coloration ([11]; cellobiose 1 g/l, 48 h): Turquoise
colony coloration ([11]; cellobiose 5 g/l, 24 h): Turquoise
colony coloration ([11]; cellobiose 5 g/l, 48 h): Turquoise
colony coloration ([11]; cellobiose 10 g/l, 24 h): Turquoise
colony coloration ([11]; cellobiose 10 g/l, 48 h): Turquoise
colony coloration (Escherichia coli 003 [12]; cellobiose 0.1 g/l, 24 h): Mauve
colony coloration (Escherichia coli 003 [12]; cellobiose 0.1 g/l, 48 h): Mauve
colony coloration (Escherichia coli 003 [12]; cellobiose 1 g/l, 24 h): Mauve
colony coloration (Escherichia coli 003 [12]; cellobiose 1 g/l, 48 h): Mauve
colony coloration (Escherichia coli 003 [12]; cellobiose 5 g/l, 24 h): Mauve
colony coloration (Escherichia coli 003 [12]; cellobiose 5 g/l, 48 h): Mauve
colony coloration (Escherichia coli 003 [12]; cellobiose 10 g/l, 24 h): Mauve
colony coloration (Escherichia coli 003 [12]; cellobiose 10 g/l, 48 h): Mauve
colony coloration (Escherichia coli 018; cellobiose 0.1 g/l, 24 h): Mauve
colony coloration (Escherichia coli 018; cellobiose 0.1 g/l, 48 h): Mauve
colony coloration (Escherichia coli 018; cellobiose 1 g/l, 24 h): Mauve
colony coloration (Escherichia coli 018; cellobiose 1 g/l, 48 h): Mauve
colony coloration (Escherichia coli 018; cellobiose 5 g/l, 24 h): Mauve
colony coloration (Escherichia coli 018; cellobiose 5 g/l, 48 h): Mauve
colony coloration (Escherichia coli 018; cellobiose 10 g/l, 24 h): Mauve
colony coloration (Escherichia coli 018; cellobiose 10 g/l, 48 h): Mauve
colony coloration ([13]; cellobiose 0.1 g/l, 24 h): Green
colony coloration ([13]; cellobiose 0.1 g/l, 48 h): Blue
colony coloration ([13]; cellobiose 1 g/l, 24 h): Green
colony coloration ([13]; cellobiose 1 g/l, 48 h): Blue
colony coloration ([13]; cellobiose 5 g/l, 24 h): Turquoise
colony coloration ([13]; cellobiose 5 g/l, 48 h): Blue
colony coloration ([13]; cellobiose 10 g/l, 24 h): Turquoise
colony coloration ([13]; cellobiose 10 g/l, 48 h): Blue
colony coloration (Serratia marcescens 112 [14]; cellobiose 0.1 g/l, 24 h): Green
colony coloration (Serratia marcescens 112 [14]; cellobiose 0.1 g/l, 48 h): Blue
colony coloration (Serratia marcescens 112 [14]; cellobiose 1 g/l, 24 h): Green
colony coloration (Serratia marcescens 112 [14]; cellobiose 1 g/l, 48 h): Blue
colony coloration (Serratia marcescens 112 [14]; cellobiose 5 g/l, 24 h): Green
colony coloration (Serratia marcescens 112 [14]; cellobiose 5 g/l, 48 h): Blue
colony coloration (Serratia marcescens 112 [14]; cellobiose 10 g/l, 24 h): Turquoise
colony coloration (Serratia marcescens 112 [14]; cellobiose 10 g/l, 48 h): Blue
coloration of the colonies (beta-glucosidase activity expressed) (Citrobacter strains [15]): green to violet coloration
differentiation of C. freundii from E. coli (Citrobacter strains [16]; cellobiose concentrations above 5 g/l): less marked
coloration of the colonies (beta-glucosidase activity expressed) (Citrobacter strains [16]; in the presence of cellobiose, supplemented Trypticase Soy medium): green to violet coloration
